Drawing on patent US20260209247A1, “Substituted Tricyclic Compounds” (Lupin Limited, priority 2019, published 2026), this text covers IC50 for 14 molecules.

The structures appear in SMILES notation.

For assay [1], the target named is T1, nucleotide exchange on hKRASG12C mediated by hSOS1 (Homo sapiens, UniProt Q07889).
T1 construct: HIS-hSOS1, 564-1049aa mediated GTP loading onto GST-hKRASG12C; His (N); made in house
T1 sequence (Q07889 564-1049): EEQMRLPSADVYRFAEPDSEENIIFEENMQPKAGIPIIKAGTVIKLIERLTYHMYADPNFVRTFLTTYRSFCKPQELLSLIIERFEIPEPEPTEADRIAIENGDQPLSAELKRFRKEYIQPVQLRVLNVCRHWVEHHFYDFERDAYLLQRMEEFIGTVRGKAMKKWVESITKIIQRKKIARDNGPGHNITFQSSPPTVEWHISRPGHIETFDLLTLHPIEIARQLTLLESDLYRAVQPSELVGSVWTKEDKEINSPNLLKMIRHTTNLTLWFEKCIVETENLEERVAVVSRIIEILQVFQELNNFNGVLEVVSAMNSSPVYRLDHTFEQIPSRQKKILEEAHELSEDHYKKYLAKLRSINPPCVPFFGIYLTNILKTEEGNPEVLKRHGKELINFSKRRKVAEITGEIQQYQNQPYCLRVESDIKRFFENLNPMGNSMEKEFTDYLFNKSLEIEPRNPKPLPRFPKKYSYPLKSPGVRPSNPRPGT
The experiment in a line: Guanine nucleotide exchange assay (GNEA, HTRF). Format: biochemical. The following applies: HIS-hSOS1 564-1049aa mediated GTP loading onto GST-hKRASG12C 1-169aa, read-out: Guanine nucleotide exchange inhibition IC50. The method, then:
Example-154: Guanine nucleotide exchange assay (GNEA) GNEA assay was conducted to evaluate the effects of compounds on the nucleotide exchange on hKRASG12C mediated by hSOS1. Inhibitory effect of compounds on HIS-hSOS1, 564-1049aa mediated GTP loading onto GST-hKRASG12C, 1-169aa both expressed and purified in-house was assessed using HTRF detection technology in biochemical assay. Compounds were pre-incubated with hSOS1 working solution containing 10-50 nM hSOS1 and 200 nM EDA-GTP-DY-647P1 (Custom manufactured, Jena Biosciences) per well of a 384 well plate (Perkin Elmer, Cat #6007290) for 10 min at 20° C. in the assay buffer containing 10 mM HEPES, pH 7.4, 150 mM NaCl, 5 mM MgCl2, 1 mM DTT, 0.05% BSA fraction V and 0.0025% Igepal. Reaction was initiated by adding working solution of hKRASG12C containing 25-125 nM hKRASG12C and MAb Anti-GST-Tb (#61GSTTLA, Cisbio BioAssays) in assay buffer. Total assay volume was 15 μL. Reaction was continued for 30-60 min at 20° C. HTRF signal was recorded in PHERAStar microplate reader. Ratio of signal obtained at 665 nm and 620 nm was used to compute the percent inhibition of compound as follows.
For orientation: In TR-FRET formats the signal depends on donor and acceptor labels being close together.

Assay [2] deals with T2, protein-protein interaction between hSOS1 and hKRASG12C (Homo sapiens, UniProt Q07889).
T2 construct: GST-hSOS1, 564-1049aa expressed and purified in-house
T2 sequence (Q07889 564-1049): T1 sequence (Q07889 564-1049)
The experiment in a line: KRAS-SOS1 interaction assay (HTRF). In kind it is binding. The following applies: GST-hSOS1 564-1049aa, HIS-hKRASG12C, read-out: KRAS-SOS1 Interaction inhibition IC50. The method, then: Interaction assay was conducted to evaluate the ability of the compounds to disrupt the protein-protein interactions between hSOS1 and hKRASG12C. Inhibitory effect of compounds on GST-hSOS1, 564-1049aa expressed and purified in-house and HIS-hKRASG12C (R06-32DH, SignalChem) interaction was assessed using HTRF detection technology in biochemical assay. Compounds were pre-incubated with 10-50 nM working solution of hSOS1 per well of a 384 well plate (Perkin Elmer, Cat #6007290) for 10 min at 20° C. in the assay buffer containing 5 mM HEPES, pH 7.4, 150 mM NaCl, 10 mM EDTA, 1 mM DTT, 0.05% BSA fraction V and 0.0025% Igepal. Reaction was initiated by adding 100-300 nM working solution of hKRASG12C in assay buffer. Total assay volume was 15 μL. Reaction was continued for 30-60 min at 20° C. Then detection solution containing MAb Anti-GST-d2 (#61GSTDLA, Cisbio BioAssays) and MAb Anti-HIS-Tb (#61HISTLA, Cisbio BioAssays), all prepared in HTRF detection buffer (#61DB10RDF, Cisbio BioAssays) was added and further incubated for 30-60 min at 20° C. HTRF signal was recorded in PHERAStar microplate reader. Ratio of signal obtained at 665 nm and 620 nm was used to compute the percent inhibition of compound utilizing the following formula: […]

For assay [3], the system named is pERK after EGF stimulation in DLD1 cells. The experiment in a line: ERK phosphorylation assay (alphascreen pERK). In kind it is cell-based. The conditions noted are these: Homo sapiens, DLD-1, 2 h compound, 200 ng/ml hEGF for 5 minutes, read-out: ERK phosphorylation inhibition IC50. The procedure:
Compounds were tested for their ability to inhibit pERK after EGF stimulation in DLD1 cells. Cells were seeded at 0.2 million cells per well in 96 well cell binding tissue culture plate in 100 μL complete media and were allowed to settle overnight (16 to 20 h). On the following day, cells were treated with various concentrations of test compounds for 2 h followed by stimulation with 200 ng/ml hEGF (diluted in PBS) for 5 minutes. Cells were then washed once with PBS and lysed in freshly prepared lysis buffer (provided with alphascreen surefire ERK1/2 p-T202/Y204 assay kit, cat no: TGRESB10K, Perkin Elmer). Lysis was carried out in plate shaker for 10-15 mins. Lysate was transferred to […] white opti-plate (Perkin Elmer) and alphascreen for pERK was carried out as per manufacturer's instructions. Plate was read after 2 h incubation in plate shaker at […] 300 RPM, 25-28° C. The difference between the unstimulated and stimulated Vehicle control is considered as 100% ERK phosphorylation, and % inhibition of compounds is calculated accordingly.

A word on the IC50: it is the concentration that inhibits the measured activity by half. For the molecule `COC1(C)C(=O)N(C)c2cc3nc(C)nc(N[C@H](C)c4cccc(C(F)(F)C(C)(C)O)c4F)c3cc21` (mixture of isomers) [Compound 96, (R&S)-4-(((R)-1-(3-(1,1-difluoro-2-hydroxy-2-methylpropyl)-2-fluorophenyl)ethyl)amino)-6-methoxy-2,6,8-trimethyl-6,8-dihydro-7H-pyrrolo[3,2-g]quinazolin-7-one], the IC50 in assay [1] fell in the range of 1 to 30 nM; in assay [2] it was 1 to 10 nM; in assay [3], 1 to 200 nM.

For the molecule `Cc1nc(N[C@H](C)c2cccc(C(F)(F)[C@](C)(O)CO)c2F)c2cc3c(cc2n1)OC(C)(C)C(=O)N3C` (racemic) [Compound 23b, 4-(((R/S)-1-(3-((R/S)-1,1-difluoro-2,3-dihydroxy-2-methylpropyl)-2-fluorophenyl)ethyl)amino)-2,6,8,8-tetramethyl-6H-[1,4]oxazino[3,2-g]quinazolin-7(8H)-one], the 50% inhibitory concentration (IC50) in assay [1] is 1 to 30 nM; in assay [2], 1 to 10 nM; in assay [3], 1 to 200 nM.

In the case of `Cc1nc(N[C@H](C)c2cccc(C(F)(F)C(C)(C)O)c2F)c2cc3c(cc2n1)N(C)[C@@H](C)C(=O)N3C` (racemic) [Compound 27a, (S/R)-4-(((R)-1-(3-(1,1-difluoro-2-hydroxy-2-methylpropyl)-2-fluorophenyl)ethyl)amino)-2,6,8,9-tetramethyl-8,9-dihydropyrazino[2,3-g]quinazolin-7(6H)-one], the figures for the IC50 in assay [1], in assay [2] and in assay [3] were 1 to 30 nM, 1 to 10 nM and 1 to 200 nM, respectively.

As to `Cc1nc(N[C@H](C)c2cccc(C(F)(F)CO)c2F)c2cc3c(cc2n1)O[C@@H](C)CN3C` (racemic) [Compound 36a, 2,2-difluoro-2-(2-fluoro-3-((R)-1-(((S/R)-2,6,8-trimethyl-7,8-dihydro-6H-[1,4]oxazino[3,2-g]quinazolin-4-yl)amino)ethyl)phenyl)ethan-1-ol], the IC50 lay within 1 to 30 nM in assay [1], 1 to 10 nM in assay [2] and 1 to 200 nM in assay [3].

Regarding `Cc1nc(N[C@H](C)c2cc(N)cc(C(F)(F)F)c2)c2cc3c(cc2n1)OCCN3C` [Compound 10, (R)—N-(1-(3-amino-5-(trifluoromethyl)phenyl)ethyl)-2,6-dimethyl-7,8-dihydro-6H-[1,4]oxazino[3,2-g]quinazolin-4-amine], the results for the IC50 in assay [1] and in assay [2] were 31 to 130 nM and 1 to 10 nM, respectively. As for `Cc1nc(N[C@H](C)c2cccc(C(F)(F)C(C)(C)O)c2F)c2cc3c(cc2n1)C(C)(C)C(=O)N3C1CC1` [Compound 65, (R)-6-cyclopropyl-4-((1-(3-(1,1-difluoro-2-hydroxy-2-methylpropyl)-2-fluorophenyl)ethyl)amino)-2,8,8-trimethyl-6,8-dihydro-7H-pyrrolo[2,3-g]quinazolin-7-one], the IC50 in assay [3] lay within 1 to 200 nM. Regarding `Cc1nc(N[C@H](C)c2cccc(C(F)(F)CO)c2F)c2cc3c(cc2n1)C(C)(C)C(=O)N3C` [Compound 72, (R)-4-((1-(3-(1,1-difluoro-2-hydroxyethyl)-2-fluorophenyl)ethyl)amino)-2,6,8,8-tetramethyl-6,8-dihydro-7H-pyrrolo[2,3-g]quinazolin-7-one], the IC50 in assay [1] fell in the range of 1 to 30 nM; in assay [2], 1 to 10 nM. For `Cc1nc(N[C@H](C)c2cccc(C(F)(F)C(C)(C)O)c2F)c2cc3c(cc2n1)C(C)(C)C(=O)N3C(C)C` [Compound 78, (R)-4-((1-(3-(1,1-difluoro-2-hydroxy-2-methylpropyl)-2-fluorophenyl)ethyl)amino)-6-isopropyl-2,8,8-trimethyl-6H-pyrrolo[2,3-g]quinazolin-7(8H)-one], the half-inhibitory concentration (IC50) in assay [3] lay within 1 to 200 nM. Take `Cc1nc(N[C@H](C)c2cccc(C(F)(F)C(C)(C)O)c2F)c2cc3c(cc2n1)C1(CC1)C(=O)N3C` [Compound 79, (R)-4′-((1-(3-(1,1-difluoro-2-hydroxy-2-methylpropyl)-2-fluorophenyl)ethyl)amino)-2′,6′-dimethylspiro[cyclopropane-1,8′-pyrrolo[2,3-g]quinazolin]-7′(6′H)-one]: the half-maximal inhibitory concentration (IC50) in assay [3] lay within 1 to 200 nM. In the case of `Cc1nc(N[C@H](C)c2cccc(C(F)(F)C(C)(C)O)c2F)c2cc3c(cc2n1)N(C)C(C)(C)N3C` [Compound 108, (R)-1,1-difluoro-1-(2-fluoro-3-(1-((1,2,2,3,6-pentamethyl-2,3-dihydro-1H-imidazo[4,5-g]quinazolin-8-yl)amino)ethyl)phenyl)-2-methylpropan-2-ol], the IC50 in assay [3] lay within 201 to 500 nM. With `Cc1nc(N[C@H](C)c2cccc(C(F)(F)C(C)(C)O)c2F)c2cc3c(cc2n1)oc(=O)n3C` [Compound 111, (R)-8-((1-(3-(1,1-difluoro-2-hydroxy-2-methylpropyl)-2-fluorophenyl)ethyl)amino)-1,6-dimethyloxazolo[4,5-g]quinazolin-2(1H)-one], the half-maximal inhibitory concentration (IC50) in assay [3] was in the range of 201 to 500 nM. As to `Cc1nc(N[C@H](C)c2cccc(C(F)(F)C(C)(C)O)c2F)c2cc3c(cc2n1)CC(=O)N3C` [Compound 113, (R)-4-((1-(3-(1,1-difluoro-2-hydroxy-2-methylpropyl)-2-fluorophenyl)ethyl)amino)-2,6-dimethyl-6,8-dihydro-7H-pyrrolo[2,3-g]quinazolin-7-one], the values for the IC50 in assay [1] and in assay [2] were 31 to 130 nM and 1 to 10 nM, respectively. `Cc1nc(N[C@H](C)c2cccc(C(F)(F)C(C)(C)O)c2F)c2cc3c(cc2n1)C(=O)N(C)C3(C)C` [Compound 114, (R)-4-((1-(3-(1,1-difluoro-2-hydroxy-2-methylpropyl)-2-fluorophenyl)ethyl)amino)-2,6,6,7-tetramethyl-6,7-dihydro-8H-pyrrolo[3,4-g]quinazolin-8-one]: the half-maximal inhibitory concentration (IC50) in assay [3] lay within 1 to 200 nM.

Turning to `Cc1nc(N[C@H](C)c2cccc(C(F)(F)C(C)(C)O)c2F)c2cc3c(cc2n1)C(F)(F)C(=O)N3C` [Compound 117, (R)-4-((1-(3-(1,1-difluoro-2-hydroxy-2-methylpropyl)-2-fluorophenyl)ethyl)amino)-8,8-difluoro-2,6-dimethyl-6,8-dihydro-7H-pyrrolo[2,3-g]quinazolin-7-one], the half-maximal inhibitory concentration (IC50) in assay [3] is 201 to 500 nM.
